# Source: PMC10385824, “Antiproliferative and Tubulin-Destabilising Effects of 3-(Prop-1-en-2-yl)azetidin-2-Ones and Related Compounds in MCF-7 and MDA-MB-231 Breast Cancer Cells” (Pharmaceuticals, 2023)
# Read-outs that look alike come from different tables or passages of the source.
# Key:
# M14 = assay: NCI-60 SRB screen, melanoma; type: cell-based, human; settings: Homo sapiens; M14; five dose 0.01–100 µM, 48 h; read-out: GI50
# HOP-62 = assay: NCI-60 SRB screen, non-small cell lung cancer; type: cell-based, human; settings: Homo sapiens; HOP-62; five dose 0.01–100 µM, 48 h; read-out: GI50
# SN12C = assay: NCI-60 SRB screen, renal cancer; type: cell-based, human; settings: Homo sapiens, five dose 0.01–100 µM, 48 h, read-out: GI50
# SW-620 = assay: NCI-60 SRB screen, colon cancer; type: cell-based, human; settings: Homo sapiens; SW-620; five dose 0.01–100 µM, 48 h; read-out: GI50
# SK-OV-3 = assay: NCI-60 SRB screen, ovarian cancer; type: cell-based, human; settings: Homo sapiens; SK-OV-3; five dose 0.01–100 µM, 48 h; read-out: GI50
# HCT-2998 = assay: NCI-60 SRB screen, colon cancer; type: cell-based, human; settings: Homo sapiens; HCT-2998; five dose 0.01–100 µM, 48 h; read-out: GI50
# HL-60(TB) = assay: NCI-60 SRB screen, leukemia; type: cell-based, human; settings: Homo sapiens
# MDA-MB-435 = assay: NCI-60 SRB screen, melanoma; type: cell-based, human; settings: Homo sapiens; MDA-MB-435; five dose 0.01–100 µM, 48 h; read-out: GI50
# NCI-H552 = assay: NCI-60 SRB screen, non-small cell lung cancer; type: cell-based, human; settings: Homo sapiens; NCI-H552; five dose 0.01–100 µM, 48 h; read-out: GI50
# PC-3 = assay: NCI-60 SRB screen, prostate cancer; type: cell-based, human; settings: Homo sapiens; PC-3; five dose 0.01–100 µM, 48 h; read-out: GI50
# BT-549 = assay: NCI-60 SRB screen, breast cancer; type: cell-based, human; settings: Homo sapiens; BT-549; five dose 0.01–100 µM, 48 h; read-out: GI50
# OVCAR-5 = assay: NCI-60 SRB screen, ovarian cancer; type: cell-based, human; settings: Homo sapiens; OVCAR-5; five dose 0.01–100 µM, 48 h; read-out: GI50
# SK-MEL-5 = assay: NCI-60 SRB screen, melanoma; type: cell-based, human; settings: Homo sapiens; SK-MEL-5; five dose 0.01–100 µM, 48 h; read-out: GI50
# [1] = tested on: MDA-MB-231 human breast cancer cells; assay: Alamar Blue cell viability (antiproliferative) assay; type: cell-based
# HCT-15 = assay: NCI-60 SRB screen, colon cancer; type: cell-based, human; settings: Homo sapiens; HCT-15; five dose 0.01–100 µM, 48 h; read-out: GI50
# HOP-92 = assay: NCI-60 SRB screen, non-small cell lung cancer; type: cell-based, human; settings: Homo sapiens; HOP-92; five dose 0.01–100 µM, 48 h; read-out: GI50
# KM12 = assay: NCI-60 SRB screen, colon cancer; type: cell-based, human; settings: Homo sapiens; KM12; five dose 0.01–100 µM, 48 h; read-out: GI50
# T-47D = assay: NCI-60 SRB screen, breast cancer; type: cell-based, human; settings: Homo sapiens, T47D; T-47D; five dose 0.01–100 µM, 48 h; read-out: GI50
# LOX IMVI = assay: NCI-60 SRB screen, melanoma; type: cell-based, human; settings: Homo sapiens, five dose 0.01–100 µM, 48 h, read-out: GI50
# 786-0 = assay: NCI-60 SRB screen, renal cancer; type: cell-based, human; settings: Homo sapiens; 786-0; five dose 0.01–100 µM, 48 h; read-out: GI50
# HS 578T = assay: NCI-60 SRB screen, breast cancer; type: cell-based; settings: Homo sapiens; HS 578T; five dose 0.01–100 µM, 48 h; read-out: GI50
# HT29 = assay: NCI-60 SRB screen, colon cancer; type: cell-based, human; settings: Homo sapiens, HT-29; HT29; five dose 0.01–100 µM, 48 h; read-out: GI50
# NCI-H23 = assay: NCI-60 SRB screen, non-small cell lung cancer; type: cell-based, human; settings: Homo sapiens; NCI-H23; five dose 0.01–100 µM, 48 h; read-out: GI50
# SNB-19 = assay: NCI-60 SRB screen, CNS cancer; type: cell-based, human; settings: Homo sapiens; SNB-19; five dose 0.01–100 µM, 48 h; read-out: GI50
# COLO 205 = assay: NCI-60 SRB screen, colon cancer; type: cell-based, human; settings: Homo sapiens; COLO 205; five dose 0.01–100 µM, 48 h; read-out: GI50
# MDA-MB-231/ATCC = assay: NCI-60 SRB screen, breast cancer; type: cell-based, human; settings: Homo sapiens, 48 h; for GI50: MDA-MB-231/ATCC, five dose 0.01–100 µM, read-out: GI50
# [2] = tested on: MCF-7 human breast cancer cells; assay: cells
# Experimental: All biochemical assays were performed in triplicate for the determination of mean values reported. The human breast carcinoma cell line MCF-7 was purchased from the European Collection of Animal Cell Cultures (ECACC) and was cultured in Eagle’s minimum essential medium with 10% fetal bovine serum, 2 mM L-glutamine and 100 μg/mL penicillin/streptomycin. The medium was supplemented with 1% non-essential amino acids. […] All cells were sub-cultured 3 times/week by trypsinisation.
# Cells were seeded at a density of 5 × 10^3 cells/well (MCF-7) in triplicate in 96-well plates. […] Cell proliferation for MCF-7 and MDA-MB-231 cells was analysed using the Alamar Blue assay (Invitrogen Corp.). […] Experiments were performed in triplicate on at least three separate occasions.
# SF539 = assay: NCI-60 SRB screen, CNS cancer; type: cell-based, human; settings: Homo sapiens, SF-539; SF539; five dose 0.01–100 µM, 48 h; read-out: GI50
# DU-145 = assay: NCI-60 SRB screen, prostate cancer; type: cell-based, human; settings: Homo sapiens; DU-145; five dose 0.01–100 µM, 48 h; read-out: GI50
# NCI-H460 = assay: NCI-60 SRB screen, non-small cell lung cancer; type: cell-based, human; settings: Homo sapiens; NCI-H460; five dose 0.01–100 µM, 48 h; read-out: GI50
# EKVX = assay: NCI-60 SRB screen, non-small cell lung cancer; type: cell-based, human; settings: Homo sapiens, five dose 0.01–100 µM, 48 h, read-out: GI50
# SR = assay: NCI-60 SRB screen, leukemia; type: cell-based, human; settings: Homo sapiens, five dose 0.01–100 µM, 48 h, read-out: GI50
# NCI-H226 = assay: NCI-60 SRB screen, non-small cell lung cancer; type: cell-based; settings: Homo sapiens; NCI-H226; five dose 0.01–100 µM, 48 h; read-out: GI50
# [3] = HL-60(TB), five dose 0.01–100 µM, 48 h
SMILES,GI50 (M14),GI50 (HOP-62),GI50 (SN12C),GI50 (SW-620),GI50 (SK-OV-3),GI50 (HCT-2998),GI50 (HL-60(TB); [3]),"GI50 (HL-60(TB); HL-60, NCI screen)",GI50 (MDA-MB-435),GI50 (NCI-H552),GI50 (PC-3),GI50 (BT-549),GI50 (OVCAR-5),GI50 (SK-MEL-5),GI50 (HCT-15),GI50 (HOP-92),GI50 (KM12),GI50 (T-47D),GI50 (LOX IMVI),GI50 (786-0),other results
"C=C(C)C1C(=O)N(c2cc(OC)c(OC)c(OC)c2)C1c1ccc(OC)cc1 (stereo not shown) [9h, 4-(4-Methoxyphenyl)-1-(3,4,5-trimethoxyphenyl)-3-(prop-1-en-2-yl)azetidin-2-one]",221 nM,57.6 nM,50.3 nM,42.4 nM,38.1 nM,30.7 nM,33.1 nM,< 34 nM,294 nM,22.2 nM,45.3 nM,32.9 nM,98.3 nM,24.3 nM,40.6 nM,71.9 nM,34 nM,26500 nM,38.8 nM,44.2 nM,"IC50 ([1]; read-out: IC50): 31.3 nM; GI50 (HS 578T): 39.1 nM; GI50 (HT29): 35.4 nM; GI50 (NCI-H23): 23.7 nM; GI50 (SNB-19): 67.5 nM; GI50 (COLO 205): 27.1 nM; GI50 (MDA-MB-231/ATCC): 32.2 nM; IC50 (MDA-MB-231/ATCC; MDA-MB-231, obtained from NCI, five concentrations 0.01–100 μM, read-out: Antiproliferative Activity IC50): 31.3 nM; IC50 ([2]; MCF7, MCF-7): 33 nM; GI50 (SF539): 35.2 nM; GI50 (DU-145): 29.1 nM; GI50 (NCI-H460): 35.6 nM; GI50 (EKVX): 81.3 nM; GI50 (SR): 38.5 nM"
"C=C(C)C1C(=O)N(c2cc(OC)c(OC)c(OC)c2)C1c1ccc(OC)c(OP(=O)(O)O)c1 (stereo not shown) [15a, 2-Methoxy-5-(4-oxo-3-(prop-1-en-2-yl)-1-(3,4,5-trimethoxyphenyl)azetidin-2-yl)-phenyl dihydrogen phosphate]",123 nM,105 nM,192 nM,80.7 nM,79.1 nM,238 nM,27.9 nM,< 34 nM,25.9 nM,26 nM,49.4 nM,59.6 nM,535 nM,40.6 nM,70.7 nM,315 nM,38.1 nM,> 100000 nM,42.6 nM,390 nM,"IC50 ([1]; 72 h, eight concentrations 0.001-50 μM, mean ± SEM, read-out: Antiproliferative Activity IC50): 32 ± 5 nM; GI50 (NCI-H226): > 100000 nM; GI50 (HS 578T): 63.1 nM; GI50 (HT29): 577 nM; GI50 (NCI-H23): 90.2 nM; GI50 (SNB-19): 429 nM; GI50 (COLO 205): 312 nM; GI50 (MDA-MB-231/ATCC): 53.4 nM; IC50 ([2]; MCF7): 19 nM; GI50 (SF539): 39.8 nM; GI50 (DU-145): 80.9 nM; GI50 (NCI-H460): 44.8 nM; GI50 (SR): 53.1 nM"
